In patent publication US7927632B2, “Compositions for sterilizing spores of spore-forming microorganisms comprising the extracts of torilidis fructus” (CJ Cheiljedang Corporation, priority 2005, dated 2011):

Tested on: spores of Bacillus subtilis
Assay: Sterilization effect on Bacillus subtilis spores by total viable cell count
Conditions: direct mechanism (surfactant ingredients) or indirect mechanism (germination inducers), ingredients acting jointly within the extract
Method: Bacillus subtilis spores were selected for use in an antimicrobial test against a spore-forming microorganism.
Vegetative cells of Bacillus subtilis ATCC 6633 were sub-cultured, streaked onto tryptic soy agar (TSA) plates, and incubated at 30° C. for 48 hrs. The plates were then stored at a low temperature of 5° C. and used as a seed culture. After the seed culture was identified to have no morphological abnormality by microscopic observation, it was spread onto a nutrient agar plate containing magnesium sulfate (NAMS), and incubated at 30° C. for 48 hrs. After 10^10-10^12 spores had emerged, the plate was washed with physiological saline, and the spores were scratched with a platinum loop and transferred into a sterile tube. The spores were then centrifuged at 4° C. at 12,000 rpm for 2 min, and this centrifugation was carried out once more. After being microscopically observed to ensure the state of the spores, the pellet was subjected to on-off ultrasonication for 5 min to destroy only the vegetative cells, and was then centrifuged again. Spore formation was further confirmed by a Dorner method, and the spores were stored at −20° C. until use for an antimicrobial test.
The antimicrobial plant materials were extracted with 75% ethanol, concentrated in a vacuum, and freeze-dried to provide aqueous or powdered antimicrobial materials. […] An antimicrobial test against spores of Bacillus subtilis, the representative spore-forming microorganism, was performed by optical density analysis at 600 nm and by counting of the total number of viable cells grown on a nutrient agar plate.
Optical density analysis is a method of indirectly analyzing the degree of growth of vegetative cells and spores by measuring OD values at 600 nm for vegetative cells and spores cultured in tryptic soy broth (TSB) at 37° C. for 18 hrs. The plant materials were primarily screened for candidates considered effective in sterilization by optical density analysis. Then, the candidates were further assessed for their antimicrobial effects by viable cell count. In detail, a spore suspension was mixed with physiological saline and a natural antimicrobial material (1% final concentration). The mixture was agitated at 30° C. for 3 hrs, and was then centrifuged at 12,000 rpm. After the supernatant, considered to contain the added antimicrobial material, was discarded, the pellet remaining in an Ependorf tube was covered with distilled water and centrifuged again to eliminate residual antimicrobial material. This washing step was repeated three times to obtain only spores treated with a natural antimicrobial material. This was done to evaluate the sterilization effects of the natural antimicrobial materials on pure spore samples.

| SMILES | sterilization effect attributed to ingredients of the extract |
| --- | --- |
| CC(=O)OC1CC2CCC1(C)C2(C)C (centres unmarked) [bornyl acetate] | about 10^1 |
| OC[C@@H](O)[C@@H](O)[C@H](O)[C@H](O)CO [mannitol] | about 10^2 |
| OC[C@@H](O)[C@H](O)[C@@H](O)CO [xylitol] | about 10^2 |
| CC(=O)OC/C=C(\C)CCC=C(C)C [geranyl acetate] | about 10^1 |
| C[C@H](N)C(=O)O [alanine] | about 10^2 |
